Target: T1, TMexD1 (Klebsiella pneumoniae, UniProt A0A411AKL6)
T1 construct: GST fusion from pGEX-6P-1-tmexD1 (BamHI/XhoI), E. coli BL21(DE3); plasmid-borne gene of tmexCD1-toprJ1
Assay: circular dichroism, secondary structure change
Conditions: harmaline 128 mg/L; 190-260 nm; indirect evidence of binding

T1 sequence (A0A411AKL6 entry or part of it): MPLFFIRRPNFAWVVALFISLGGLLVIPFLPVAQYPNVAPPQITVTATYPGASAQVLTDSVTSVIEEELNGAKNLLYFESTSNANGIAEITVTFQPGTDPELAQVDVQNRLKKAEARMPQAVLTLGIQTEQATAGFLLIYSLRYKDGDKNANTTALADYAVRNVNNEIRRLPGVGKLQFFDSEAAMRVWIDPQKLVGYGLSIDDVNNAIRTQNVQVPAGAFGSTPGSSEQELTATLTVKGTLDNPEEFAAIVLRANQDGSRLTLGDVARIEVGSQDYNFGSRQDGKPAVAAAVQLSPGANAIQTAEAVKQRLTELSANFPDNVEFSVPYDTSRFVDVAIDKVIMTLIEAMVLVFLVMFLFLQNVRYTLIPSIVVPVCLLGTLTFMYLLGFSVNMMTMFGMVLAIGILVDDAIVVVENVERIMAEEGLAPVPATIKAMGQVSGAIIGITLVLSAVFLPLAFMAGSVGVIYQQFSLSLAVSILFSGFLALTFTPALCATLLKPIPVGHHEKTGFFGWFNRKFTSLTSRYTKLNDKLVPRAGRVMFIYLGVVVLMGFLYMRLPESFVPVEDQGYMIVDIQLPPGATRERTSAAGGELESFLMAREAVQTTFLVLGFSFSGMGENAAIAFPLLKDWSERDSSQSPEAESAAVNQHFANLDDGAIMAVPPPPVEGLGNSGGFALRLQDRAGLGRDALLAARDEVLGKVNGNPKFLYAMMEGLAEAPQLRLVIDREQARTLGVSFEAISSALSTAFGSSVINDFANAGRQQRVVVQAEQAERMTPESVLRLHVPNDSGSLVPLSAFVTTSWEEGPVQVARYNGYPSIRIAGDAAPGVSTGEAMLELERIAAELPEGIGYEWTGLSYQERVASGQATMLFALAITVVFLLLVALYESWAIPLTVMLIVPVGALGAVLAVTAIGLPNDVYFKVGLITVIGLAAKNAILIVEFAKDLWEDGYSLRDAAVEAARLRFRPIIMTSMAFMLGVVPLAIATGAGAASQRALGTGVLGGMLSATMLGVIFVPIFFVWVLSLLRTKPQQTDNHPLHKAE

In the case of `COc1ccc2c3c([nH]c2c1)C(C)=NCC3` [harmaline], the “circular dichroism, secondary structure change” value is reported as “TMexD1 (Fig. 7C and D) and TOprJ1 (Fig. 7E and F) were observed by harmaline treatment”.
